Values quoted from earlier work, collected in patent US7041634B2, “Method of inhibiting immune system destruction of transplanted viable cells” (Emory University, priority 1995, dated 2006).

System: encapsulated hamster islet xenografts in NOD mice
Details: NOD recipients

## N=C(N)NCCCCCCC(=O)NC(O)C(=O)NCCCCNCCCN (stereo not shown) [deoxyspergualin]
  prolongation of encapsulated islet xenografts: significant prolongation
